Experimental findings from publication PMC6270099, “Synthesis, Biological Evaluation, and Pharmacokinetic Study of Novel Liguzinediol Prodrugs” (Molecules, 2013) are described below.

This series is described as follows: In vitro physiological stability and formation of parent compound in rat plasma. The format is in vitro ADME. Conditions: 37 °C, up to 3 h. Here is the method:
Analysis was performed by using a Waters Alliance HPLC system (2695 pump, and 2489 PDA detector) with the following chromatographic parameters: wavelength, 278 nm; injection volume, 20 μL; run time, 20 min. The chromatographic separation was performed on an Phecda C18 (4.6 mm × 250 mm, 5 μm) column with a gradient elution of methanol and deionized water. Flow rate was 1.0 mL/min at 30 °C.
Rat plasma was harvested from in-house rats. Fresh blood was collected from the male rat using a retro-orbital bleeding method in a tube containing heparin (100 IU/mL blood). After the collection of blood, plasma was separated from the blood by centrifugation at 5,000 rpm for 10 min. The supernatant plasma was separated and utilized for the further experiment.
The test compound in aqueous solution 30 mM (20 μL) was dissolved in rat plasma (980 μL). Immediately after addition (0 min), aliquots (100 μL) were removed and added to ice cold dissolvent (ethanol-ethyl acetate = 1:4 v/v, 1 mL) and mixed well by vortexing for 2 min. The mixture was centrifuged at 12,000 rpm for 10 min, and the supernatant was diluted with methanol and analyzed by HPLC. After 0 min, the remaining sample was incubated at 37 °C for 1, 2, and 3 h. […]

Regarding `Cc1nc(CO)c(C)nc1CO` [1a, Liguzinediol], the metabolic stability entry is recorded as “fairly stable”.
